Experimental data reported in patent US7456292B2, “Hydroxamic acid-containing amino acid derivatives” (Bexel Pharmaceuticals, Inc., priority 2005, dated 2008).
Counter-ions that a name gives are not always drawn.

How the values were obtained:
TNF-α [1] = assay: LPS induced TNF-α in THP-1 monocytic cells; assay type: cell-based; conditions: Homo sapiens, LPS 1 μg/mL 24 hours
Experimental: (§1) Human THP-1 monocyte cells were cultured and incubated with compounds at different concentrations. Cells were then challenged with lipopolysaccharides (LPS) at a concentration of (1 μg/mL) for 24 hours. Cell supernatants were then analyzed for the presence of TNF-α cytokines by antibody directed enzyme-linked immunoassay from R & D System, Minneapolis, USA.

TNF-α [2] = assay: LPS induced sepsis model in mice, serum TNF-α; assay type: in vivo; conditions: Mus musculus, SW mice, serum after 90 min
Experimental: (§2) SW mice were orally treated with vehicle, dexamethasone (5 mg/kg) and compounds at a dose of 50 mg/kg body weight one hour before LPS injection (10 μg/mouse, ip) and blood was collected after 90 min and measured serum TNF-α and IL-6 levels by ELISA.

[3] = tested on: Collagen Induced Arthritis Model; assay: Collagen induced arthritis model; assay type: in vivo; conditions: male DBA/1 Lac mice, oral 50 mg/kg daily
Experimental: Arthritis induced in male DBA/1 Lac mice with bovine collagen (100 μg/mouse). Booster dose was given on Day 21 and started treatment when clinical score was about 2. […] Dexamethasone was kept as positive control. Severity of each paw score was defined from 0=no erythma to 4=severe arthritis for the swollen paws with a maximum possible score of 16 for 4 paws (4×4) in one animal.

TNF-α [4] = assay: LPS induced TNF-α in hPBMC; assay type: cell-based; conditions: Homo sapiens, read-out: Inhibition (%) TNF-α
Experimental: as §1, with “PBMC” for “THP-1”, “TNF-α, IL-6 and IL-1β” for “TNF-α”, “immunoassay. Dexamethasone was used as a positive control in the experiments.” for “immunoassay from R & D System, Minneapolis, USA.”

[5] = tested on: carrageenan induced paw inflammation; assay: Carrageenan induced inflammation in rats; assay type: in vivo; conditions: Sprague-Dowley rats, 50 mg/kg oral, paw volume after 2 and 3 hours
Experimental: Sprague-Dowley rats with average weight of 250 g (6-7 weeks of age) were randomized in three groups, and given 50 mg/kg oral dose of compound of example 6. Thirty minutes later carrageenan was administered in the sub-planter region of right hind paws. The control group received equal volume of water without any compound. Paw volume was measured after 2 and 3 hours. Dexamethasone at a concentration of 5 mg/kg was used as a positive control in this experiment.

IL-12 (p40) = assay: CD40 ligand-mediated synthesis of IL-12 (p40) in mouse peritoneal macrophages; assay type: cell-based; conditions: mouse peritoneal macrophages stimulated with 2 μg/mL soluble CD40 ligand
Experimental: To further confirm the inhibition of IL-12 secretion mediated by CD40, induction of IL-12 (p40) was examined following activation of macrophages by soluble CD40 ligand, CD 154. Mouse peritoneal macrophages, were stimulated with 2 μg/mL of soluble […] (Immunex) in the presence of compound 22.

gamma interferon = assay: Myelin basic protein (MBP) induced gamma interferon in lymph node cultures; assay type: cell-based; conditions: MBP stimulated lymph node cells of SJL mice, 72 h, ELISA
Experimental: (§3) FIG. 6: Inhibition of myelin basic protein (MBP) induced […] mice were immunized with 400 μg of myelin basic protein (MBP) in CFA on day 0 and 7 and regional lymph nodes were harvested on day 14 and cultured with MBP in the presence or absence of compound 22 for 72 h. Lymphocyte proliferation was determined by thymidine incorporation assay. Cell culture supernatants from MBP stimulated and compound 22 treated cells were assayed for gamma interferon using ELISA.

Lymphocyte proliferation = assay: MBP induced lymphocyte proliferation (thymidine incorporation); assay type: cell-based; conditions: MBP stimulated lymph node cells of SJL mice, 72 h
Experimental: as §3

[6] = tested on: intestinal bowel disease (IBD) induced by dextran sodium sulphate (DSS); assay: DSS induced inflammatory bowel disease in mice; assay type: in vivo; conditions: male SW mice, 4% DSS, daily dose 50 mg/kg body weight in PEG400
Experimental: DAI is comprised of factors such as body weight, stool quality and occult blood content. A 4% solution of DSS was provided as drinking water and DAI was monitored twice a week for the induction of disease. Following this the animals were treated with a daily dose 50 mg/kg body weight of compound 22 in PEG400 formulations and the activity index was monitored twice a week.

IL-1β = assay: LPS induced IL-1β in hPBMC; assay type: cell-based; conditions: Homo sapiens, LPS 1 μg/mL 24 hours
Experimental: as §1, with “PBMC” for “THP-1”, “TNF-α, IL-6 and IL-1β” for “TNF-α”, “immunoassay. Dexamethasone was used as a positive control in the experiments.” for “immunoassay from R & D System, Minneapolis, USA.”

IL-6 [7] = assay: LPS induced IL-6 in hPBMC; assay type: cell-based; conditions: Homo sapiens, LPS 1 μg/mL 24 hours
Experimental: as §1, with “PBMC” for “THP-1”, “TNF-α, IL-6 and IL-1β” for “TNF-α”, “immunoassay. Dexamethasone was used as a positive control in the experiments.” for “immunoassay from R & D System, Minneapolis, USA.”

IL-6 [8] = assay: LPS induced sepsis model in mice, serum IL-6; assay type: in vivo; conditions: Mus musculus; SW mice, oral 5 mg/kg bw one hour before LPS, serum after 90 min
Experimental: as §2

IL-12 = IL-12 secretion following LPS stimulation of mouse spleenic macrophages; assay type: cell-based; conditions: mouse splenic macrophages stimulated with LPS for 72 hrs
From the text: Compound 6 of this class inhibited IL-12 production in mouse splenic macrophages stimulated with LPS for 72 hrs.

T cell proliferation = assay: Inhibition of T cell proliferation; assay type: cell-based, mice
Experimental: SJL mice were immunized with keyhole limpet hemocyanin (KLH) in complete Freund's adjuvant (CFA). 12 days later regional lymph nodes were isolated and a proliferative response to KLH in the presence or absence of drug was performed (in presence of 3H thymidine). The results are expressed at Stimulation index (CPM+antigen/CPM no antigen). Similarly, mitogen induced concanavalin A (CON-A), IL-4, IL-2 induced T cell proliferation was measured in presence of compounds are shown in Table VI.

[9] = hPBMC, 10 μM, LPS 1 μg/mL 24 hours, * average of two experiments

Q: How did the inhibition at 10 µM (TNF-α [1]) turn out when `Cl.NC(Cc1ccc(Oc2ccc(C(=O)NO)cc2)cc1)C(=O)O` (stereo not shown) [Compound 9, 2-amino-3-[4-(4-hydroxycarbamoyl-phenoxy)-phenyl]-propionic acid hydrochloric acid salt] was run?
A: 20%

Q: What about the inhibition at 50 mg/kg (TNF-α [2]; oral 50 mg/kg body weight one hour before LPS) of the same compound?
A: 45%

Q: And the arthritic scores [3]?
A: significantly improved the arthritic scores

Q: For `Cc1ccc(S(=O)(=O)NC(Cc2ccc(Oc3ccc(C(=O)NO)cc3)cc2)C(=O)N(C)C)cc1` (stereo not shown) [Compound 14, 4-{4-[2-Dimethylcarbamoyl-2-(toluene-4-sulfonylamino)-ethyl]-phenoxy}-N-hydroxy-benzamide], which inhibition at 10 µM (TNF-α [4]; [9]) is on record?
A: 22%

Q: Which inhibition at 10 µM (TNF-α [4]; [9]) does the source give for `CC(C)OC(=O)C(N)Cc1ccc(Oc2ccc(C(=O)O)cc2)cc1` (stereo not shown) [Compound 15, 4-[4-(2-Amino-2-isopropoxycarbonylethyl)-phenoxy]-benzoicacid] here?
A: 40.1%

Q: Which results are given for `CC(C)OC(=O)C(N)Cc1ccc(Oc2ccc(C(=O)NO)cc2)cc1` (stereo not shown) [Compound 16, 2-Amino-3-[4-(4-hydroxycarbamoylphenoxy)-phenyl]-propionic acid isopropyl ester]?
A: inhibition at 10 µM (TNF-α [4]; [9]): 69.2%; inflammation induced by carrageenan (paw volume) [5]: substantially lower the inflammation induced by carrageenan

Q: With `CN(C)C(=O)[C@@H](N)Cc1ccc(Oc2ccc(C(=O)NO)cn2)cc1` [Compound 21, L-6-[4-(2-amino-2-dimethylcarbamoyl-ethyl)-phenoxy]-N-hydroxy-nicotinamide hydrochloride] as the compound, how does the inhibition at 10 µM (TNF-α [4]; [9]) read?
A: 36.1%

Q: Which inhibition at 10 µM (TNF-α [4]; 24 h) does the source give for `NC(Cc1ccc(Oc2ccc(C(=O)NO)cc2)cc1)C(=O)[O-].[Na+]` (stereo not shown) [Compound 22, 2-amino-3-[4-(4-hydroxycarbamoyl-phenoxy)-phenyl]-propionic acid sodium salt] here?
A: 40%

Q: And the arthritic scores [3]?
A: significantly improved the arthritic scores

Q: What about the “inhibition of IL-12 (p40)” value (IL-12 (p40)) of the same compound?
A: prominent inhibition of IL-12

Q: What about the gamma interferon levels (gamma interferon) of the same compound?
A: decrease in gamma interferon levels

Q: What about the “T cell proliferative response” value (Lymphocyte proliferation) of the same compound?
A: normal T cell proliferative response

Q: What about the “disease activity index (DAI)” value [6] of the same compound?
A: lowering of disease activity index

Q: What does the source list for `C[C@@H]1C[C@H]2[C@@H]3CCC4=CC(=O)C=C[C@]4(C)[C@@]3(F)[C@@H](O)C[C@]2(C)[C@@]1(O)C(=O)CO` [Dexamethasone, reference compound]?
A: inhibition at 10 µM (TNF-α [1]): 70%; inhibition at 10 µM (IL-1β): 26%; inhibition at 10 µM (IL-6 [7]): 14%; inhibition at 10 µM (TNF-α [4]; [9]): 42%; inhibition at 5 mg/kg (TNF-α [2]; oral 5 mg/kg bw one hour before LPS): 70%; inhibition at 5 mg/kg (IL-6 [8]): 50%

Q: `CS(=O)(=O)c1ccc(C2=C(c3ccccc3)C(=O)OC2)cc1` [rofecoxib, reference compound] was tested. Which IL-12 production (IL-12) did it give?
A: no effect was observed

Q: What about the “effect on T cells (proliferation)” value (T cell proliferation) of the same compound?
A: did not show any effect on T cells
